A short description of assay [1]: Induction of ATP-induced cytosolic calcium ion concentration in mouse DRG neurons assessed as neuron population at 10 microg/ml measured after 1 hr by Fura2AM dye based fluorescence microscopic. The format is functional. Conditions: dose 10 µg/ml.
Assay [2] can be described thus: Reduction of ATP and Kcl-induced increase in cytosolic Ca2+ ion concentration mouse DRG other neuron subtype assessed as neuron population at 10 uM measured after 1 hr by Fura2AM dye based fluorescence microscopic analysis. The assay is classed as functional. Further details: scale not given: the % may be the effect or the level left.
Assay [3] in a line: Induction of cytosolic calcium ion concentration in mouse peptidergic nociceptive DRG neuron at 10 uM measured after 1 hr by Fura2AM dye based fluorescence microscopic analysis. The assay is classed as functional.
Assay [4] in a line: Reduction of ATP and Kcl-induced increase in cytosolic Ca2+ ion concentration mouse non-peptidergic nociceptive DRG neuron assessed as neuron population at 10 uM measured after 1 hr by Fura2AM dye based fluorescence microscopic analysis. The assay is classed as functional. More on the design: scale not given: the % may be the effect or the level left.
Assay [5] is described as follows: Induction of cytosolic calcium ion concentration in mouse microglia cells at 10 uM measured after 1 hr by Fura2AM dye based fluorescence microscopic analysis. The assay is classed as functional.
Assay [6] is described as follows: Induction of cytosolic calcium ion concentration in mouse DRG neurons at 10 microg/ml measured after 1 hr by Fura2AM dye based fluorescence microscopic analysis. The assay is classed as functional, Neuron. Conditions: dose 10 µg/ml.
Assay [7] can be described thus: Induction of ATP and Kcl-induced increase in cytosolic Ca2+ ion concentration mouse peptidergic nociceptive DRG neuron assessed as neuron population at 10 uM measured after 1 hr by Fura2AM dye based fluorescence microscopic analysis. The assay is classed as functional.
The nature of assay [8]: Induction of Kcl-induced cytosolic calcium ion concentration in mouse DRG neurons in response to Kcl at 10 microg/ml measured after 1 hr by Fura2AM dye based fluorescence microscopic analysis. The format is functional, Neuron. Conditions: dose 10 µg/ml.
A short description of assay [9]: Reduction in ATP-induced cytosolic calcium ion concentration in mouse DRG neurons at 10 microg/ml measured after 1 hr by Fura2AM dye based fluorescence microscopic analysis in response to ATP. Further details: scale not given: the % may be the effect or the level left. Conditions: dose 10 µg/ml. The format is functional, Neuron.
Assay [10] can be described thus: Induction of cytosolic calcium ion concentration in mouse non-peptidergic nociceptive DRG neuron at 10 uM measured after 1 hr by Fura2AM dye based fluorescence microscopic analysis. The assay is classed as functional.
Assay [11] can be described thus: Reduction of ATP and Kcl-induced increase in cytosolic Ca2+ ion concentration mouse […] assessed as neuron population at 10 uM measured after 1 hr by Fura2AM dye based fluorescence microscopic analysis. The format is functional. More on the design: scale not given: the % may be the effect or the level left.
The nature of assay [12]: Induction of ATP and Kcl-induced increase in cytosolic Ca2+ ion concentration mouse DRG other neuron subtype assessed as neuron population at 10 uM measured after 1 hr by Fura2AM dye based fluorescence microscopic analysis. The format is functional.
A short description of assay [13]: Induction of ATP and Kcl-induced increase in cytosolic Ca2+ ion concentration mouse non-peptidergic nociceptive DRG neuron assessed as neuron population at 10 uM measured after 1 hr by Fura2AM dye based fluorescence microscopic analysis. The assay is classed as functional.
Assay [14] in a line: Induction of cytosolic calcium ion concentration in mouse DRG other neuron subtype at 10 uM measured after 1 hr by Fura2AM dye based fluorescence microscopic analysis. The assay is classed as functional.
A short description of assay [15]: (§1) Reduction in Kcl-induced cytosolic calcium ion concentration in mouse DRG neurons at 10 microg/ml measured after 1 hr by Fura2AM dye based fluorescence microscopic analysis in response to Kcl. The format is functional, Neuron. More on the design: scale not given: the % may be the effect or the level left. Conditions: dose 10 µg/ml.
Assay [16] can be described thus: Reduction of ATP and Kcl-induced increase in cytosolic Ca2+ ion concentration mouse peptidergic nociceptive DRG neuron assessed as neuron population at 10 uM measured after 1 hr by Fura2AM dye based fluorescence microscopic analysis. The assay is classed as functional. More on the design: scale not given: the % may be the effect or the level left.
Assay [17] can be described thus: Induction of ATP and Kcl-induced increase in cytosolic Ca2+ ion concentration mouse […] assessed as neuron population at 10 uM measured after 1 hr by Fura2AM dye based fluorescence microscopic analysis. The format is functional.
Assay [18] has as its system Neuron. The assay can be described thus: Effect on mouse GABA receptor expressed in mouse peptidergic nociceptive DRG neurons at 10 uM. The format is tissue-based.
Assay [19] has as its system Neuron. The assay can be described thus: Effect on mouse GABA receptor expressed in mouse C-low-threshold mechanoreceptors DRG neurons at 10 uM. The format is tissue-based.
In assay [20] the test system is Neuron. Briefly: Effect on mouse GABA receptor expressed in mouse non-peptidergic nociceptive DRG neurons at 10 uM. The format is tissue-based.
Assay [21] deals with Neuron. The assay can be described thus: Effect on mouse GABA receptor expressed in mouse DRG neurons at 10 uM using cold thermosensors. The assay is classed as tissue-based.
The subject of assay [22] is Neuron. The description is as §1. The format is functional. The conditions noted are these: dose 10.0 µg/ml.

Active and inactive are the calls of the source.

Consider `C[C@H](CC[C@H](O)C(C)(C)O)[C@H]1CC[C@H]2[C@@H]3C(=O)C=C4C[C@@H](O)CC[C@]4(C)[C@H]3CC[C@]12C`, for which the Activity was 21% in assay [1]; 3% in assay [2]; 37% in [3]; 7% in [4]; 4% in assay [5]; 58% in [6]. Moreover, the Activity in assay [7] is listed as 45%; in [8], 6%; in assay [9], 15%; in assay [10] it was 15%; in [11], 24%; in assay [12] it was 5%. Besides, the Activity in assay [13] is on record as 26%; in assay [14], 2%; in assay [15], 49%; in [16], 4%; in assay [17], 3%.

Take `C[C@H](CCC(=O)O)[C@H]1CC[C@H]2[C@@H]3[C@H](O)C[C@@H]4C[C@H](O)CC[C@]4(C)[C@H]3C[C@H](O)[C@]12C`: the result in the assay on Neuron [18], with Neuron [19], in the assay on Neuron [20] and in the assay on Neuron [21] was inactive.

On to `C[C@H](CCC(=O)C(C)(C)O)[C@H]1CC[C@H]2[C@@H]3C(=O)C=C4C=CCC[C@]4(C)[C@H]3CC[C@]12C`, for which the Activity is listed as 9% in assay [1]; 35% in assay [6]; 22% in assay [8]; 17% in assay [9]; 2% in assay [15].

For `C[C@H](CC[C@@H](O)C(C)(C)O)[C@H]1CC[C@H]2[C@@H]3C(=O)C=C4C=CCC[C@]4(C)[C@H]3CC[C@]12C`, the Activity was 36% in [1]; 3% in assay [6]; 38% in assay [8]; 3% in [9]; 4% in [15].

`CC(C)[C@@H](C)/C=C/[C@@H](C)[C@H]1CC[C@H]2C3=CC=C4C[C@@H](O)CC[C@]4(C)[C@H]3CC[C@]12C`: the outcome in the assay with Neuron [18], in the assay with Neuron [19], with Neuron [20] and in the assay on Neuron [21] was inactive.

Turning to `CC(C)CCC[C@@H](C)[C@H]1CC[C@H]2[C@@H]3CC=C4C[C@@H](O)CC[C@]4(C)[C@H]3CC[C@]12C`, the outcome in the assay with Neuron [18], with Neuron [19], in the assay on Neuron [20] and in the assay with Neuron [21] was inactive.

On to `C[C@H](CC[C@@H](O)C(C)(C)O)[C@H]1CC[C@H]2[C@@H]3C(=O)C=C4C[C@H](O)CC[C@]4(C)[C@H]3CC[C@]12C`, for which the Activity in assay [1] amounted to 33%; in [6] it was 19%; in assay [8], 54%; in assay [9], 3%. The result in the assay on Neuron [22] was inactive.

Regarding `CC(C)C(=O)CC[C@@H](C)[C@H]1CC[C@H]2[C@@H]3C(=O)C=C4C=CCC[C@]4(C)[C@H]3CC[C@]12C`, the Activity stood at 11% in [1]; 6% in assay [6]; 19% in assay [8]; 13% in assay [9]; 1% in assay [15].

(Values after ChEMBL document CHEMBL5032490, “Neuroactive Type-A γ-Aminobutyric Acid Receptor Allosteric Modulator Steroids from the Hypobranchial Gland of Marine Mollusk, Conus geographus” (J Med Chem, 2021).)
